Usually melting point stands for the temperature of the solid-liquid transition.

Take `CC(=NO)C(C)(C)NOCCNC(C)(C)C(CCN1C(=O)c2ccccc2C1=O)=NO`: the melting point lay in the range of 74 to 75 °C.
As for `O=C(CO[C@H]1NC(=O)[C@@H]1NC(=O)c1ccccc1)CC(=O)OCc1ccc([N+](=O)[O-])cc1`, the figure is 138 to 139 °C; as for `CC(C)C(NC(=O)OC(C)(C)C)C(=O)OCC1OC(n2cc(C=CBr)c(=O)[nH]c2=O)CC1Cl` (stereo not drawn), 75 to 76 °C; as for `CN(C(=O)CCc1ccccc1)c1ccc(C(=O)NN=C2C(=O)Nc3ccc(I)cc32)cc1`, 239 °C.
Compound `NNc1ncc(-c2ccc(F)cc2)nn1` showed a melting point of 231 to 235 °C.
The same measure for `Fc1ccccc1NC1(c2nnn[nH]2)CCN(Cc2ccccc2)CC1`: 195 to 198 °C.
As to `C=CCN1CC(=O)N(c2cc(Cl)ccc2C)C1=S`, the melting point lay within 106 to 109 °C.
`CCOC(=O)C1CN(c2ccccc2)C(=O)C1=O` (stereo not drawn) showed a melting point of 153 to 155 °C.
As for `Cc1cc(C)cc(COC(=O)[C@H](Cc2cccc3ccccc23)NC(=O)OC(C)(C)C)c1`, the figure is 93 to 94 °C; as for `CCOC(C)OCc1ccccc1C(=NO)C(=O)NC` (stereo not drawn), 85 to 87 °C.
The same measure for `CCOC(=O)C(=O)Nc1cnccn1`: 134 to 137 °C.
The same measure for `CCCc1cc(NC(=O)N2CCN(c3ccccc3OC)CC2)c(OC)nc1C`: 109 to 110 °C; for `COc1ccc(OC(=O)Cl)cc1C12CC3CC(CC(C3)C1)C2`: 87 to 89 °C.
As to `COc1ccccc1N1CCN(C(=O)CCCCN2CC=C(c3c[nH]c4cc(F)ccc34)CC2)CC1`, the melting point was in the range of 78 to 81 °C.
As for `N#Cc1ccc(-c2ccc(Cl)cc2)[nH]c1=O`, the figure is 330 to 339 °C; as for `CN1C(=O)C2CCCN2Cc2cc(Cl)ccc21` (stereo not drawn), 97 to 99 °C; as for `C=CCOc1cc(C(=O)O)cc(N)c1C(=O)c1ccccc1`, 206 to 208 °C.
The same measure for `Nc1cccc(OCCCN2C(=O)c3ccccc3C2=O)c1`: 157 to 162 °C; for `C=Cn1ccnc1C#N`: 81.5 °C.
The same measure for `CCCc1c(OCc2cccc(C=CC(=O)O)c2)ccc(C(C)=O)c1O`: 195 to 196 °C; for `CCC(=O)Oc1ccc2c(c1)CCC(CN1CCC(O)(c3ccccc3)CC1)C2=O` (stereo not drawn): 170 to 172 °C; for `CCCCCCCCCCCCNc1cc(C)c(C)cc1N`: 53 to 54 °C.
Take `COC(=O)CC(Sc1cc(C(C)(C)C)c(O)c(C(C)(C)C)c1)C(=O)OC` (stereo not drawn): the melting point fell in the range of 94 to 96 °C.
For `Clc1c2ccccc2nc2c1oc1ccccc12`, the melting point was in the range of 158 to 159 °C.
As for `CC1(C)CC(=O)C(Cl)(Cl)C(Cl)C1Br` (stereo not drawn), the figure is 117 °C; as for `O=C(O)C(=O)CC(=O)c1cccn1Cc1cccc(F)c1`, 147 to 149 °C; as for `O=C(Cn1c(-c2ccc(Cl)cc2)nc2cccnc21)N1CCCC1`, 224 to 225 °C.
The same measure for `CCCCCCCC1=CC(=O)NC1(O)CN` (stereo not drawn): 176 °C; for `CC(=O)O[C@H]1[C@H]([C@H](Cc2ccccc2)NC(=O)OCc2ccccc2)OC(=O)N[C@H]1Cc1ccccc1`: 140 to 142 °C.
The same measure for `CCCCNS(=O)(=O)c1ccc2nc3scc(C)n3c(=O)c2c1`: 165 to 167 °C; for `N#Cc1ccccc1OCCCCCC(=O)O`: 77 to 80 °C.
As to `Cc1ncc([N+](=O)[O-])n1CCN1C(=O)C2c3cccc4cccc(c34)C2C1=O` (stereo not drawn), the melting point was 183 to 185 °C.
The same measure for `CCOCOC1(C(=O)CO)C(CC)CC2C3CC(CC)C4=CC(=O)C=CC4(C)C3C(O)CC21C` (stereo not drawn): 100 to 102 °C.
The same measure for `Cc1cc2c(c3ccc(=O)[nH]c13)OC(CCCl)C2` (stereo not drawn): 209 to 211 °C; for `COc1cc(C(F)(F)F)nc2c(Cl)ccc(F)c12`: 198 to 200 °C; for `COC(=O)c1cc(C)c(C(OC(=O)C(C)NS(=O)(=O)c2ccc(Cl)cc2)c2cc(-n3ccnc3)ccc2C)c(C)c1` (stereo not drawn): 126 to 128 °C.
The same measure for `COc1cc(OCCN2CCOCC2)c(C=CC(=O)c2ccc(C(N)=O)cc2)cc1-c1cccs1`: 183 to 184 °C.
Compound `CC(C)(C)[NH+]([O-])C(=O)Nc1ccnc(-c2ccncc2)n1` (stereo not drawn) yielded a melting point of 125 to 150 °C.
As for `C(=Cc1ccc(-c2nc(-c3ccccc3)no2)cc1)c1ccc(-c2nc3ccccn3n2)cc1`, the figure is 287 °C; as for `Cc1cccc(NC(=O)NC2N=C(CC(C)C)c3cccc(C)c3N(CC(=O)N3CCCCCCC3)C2=O)c1` (stereo not drawn), 132 to 133 °C; as for `CCOC(=O)c1c(S(C)(=O)=O)n(C2CC2)c2c(OC)c(F)c(F)cc2c1=O`, 177 to 178 °C.
As for `COc1ccc(Nc2ccccc2C=C(Br)Br)cc1OC`, the figure is 83 to 85 °C; as for `COc1cc(C2c3cc4c(cc3C(NC3=C(C)C(=O)N(C)C3=O)C3COC(=O)C23)OCO4)cc(OC)c1O` (stereo not drawn), 172 to 176 °C; as for `COc1ccc(C(=O)Oc2ccc(C(=O)O)c(F)c2)cc1C12CC3CC(CC(C3)C1)C2`, 254 to 256 °C.
The same measure for `COC(=O)COc1ccc(C(=O)CBr)cc1OC`: 105 to 107 °C; for `CC(CCCc1ccccc1)n1nnc2c(=O)[nH]c(C(=O)c3ccccc3)nc21` (stereo not drawn): 105 °C; for `CCCCn1c(=O)c2c(nc(/C=C/c3cc(OC)c(OC)c(OC)c3)n2C)n(CCCC)c1=O`: 137 °C.
For the compound `CC#Cc1ncn2c1CN(C)C(=O)c1ccccc1-2`, the melting point lay within 206 to 207 °C.
As for `CCCC1=C(C(=O)OCC)C(c2cccnc2)c2c[nH]nc2N1` (stereo not drawn), the figure is 251 °C; as for `OC(Cc1ccc(Cl)cc1)(Cn1ccnc1)c1ccc(-c2ccccc2)cc1` (stereo not drawn), 182 °C.
As for `N#Cc1ccc(NC(=O)C(=O)N2CCC(Cc3ccccc3)CC2)cc1`, the figure is 109 to 112 °C.
The same measure for `CCOC(=O)C1=C(C(=O)OCC)N(c2ccccc2)C(c2ccccc2)N(c2ccccc2)C1` (stereo not drawn): 120 °C; for `COc1ccc(CN2C(=O)CNS2(=O)=O)cc1`: 111 to 113 °C; for `O=c1[nH]c(=O)n(CCCCN2CCC(OC(c3ccccc3)c3ccccc3)CC2)c2ccccc12`: 131 to 133 °C.
In turn, `COC(N)C(=O)NC(=O)OCc1ccccc1` (stereo not drawn) returned a melting point of 110 to 112 °C.
Compound `CN(C)c1ncc(-c2cccc(N)c2)cn1` registered a melting point of 116 to 117 °C.
The same measure for `CC(=O)NNc1nc(C(F)(F)F)nc(-c2ccc(C)cc2)c1-c1ccccc1`: 147 to 152 °C.
The same measure for `Nc1nc(-c2ccc(CCN3CCN(c4cccc5ccccc45)CC3)cc2)cs1`: 274 to 277 °C; for `COc1cc(C(=O)C#CCOC(=O)c2cc(OC)c(OC)c(OC)c2)cc(OC)c1OC`: 106 to 108 °C.
Consider `c1ccc(-c2cc(-c3csc(Nc4ccncc4)n3)on2)cc1`, for which the melting point fell in the range of 269 to 270 °C.
As for `CC(C)C(NC(=O)OCc1csc(N2CCCC2)n1)C(=O)NN(C(=O)OCc1cncs1)C(Cc1ccccc1)CC(O)CCc1ccccc1` (stereo not drawn), the figure is 165 to 167 °C.
`Cc1c(NC(=O)c2ccc(C(C)(C)C)cc2)cccc1-c1cc(Br)c(=O)n(C)c1` showed a melting point of 149 to 151 °C.
For `O=C(O)COc1ccc(SCc2ccc(OCc3ccc(Cl)cc3Cl)cc2)c2c1CCC2`, the melting point was in the range of 149 to 150 °C.
As for `CC(C)=NOCc1nc2c(N)nc3cc(Br)cnc3c2n1CC(C)C`, the figure is 176 to 178 °C; as for `C=CCN1CC(c2ccc(NC(=O)OCc3ccccc3)cc2F)CCS1(=O)=O` (stereo not drawn), 138 to 140 °C; as for `COc1ccc(COc2c(O)cc3c(c2Cl)CCN(C(=O)OC(C)(C)C)CC3c2ccc(O)cc2)cc1` (stereo not drawn), 190 to 192 °C.
`NC(=O)CCn1c(=S)sc2ccccc21`: the melting point lay in the range of 226 to 227 °C.
In turn, `O=Cc1c2ccccc2c(C=O)c2c(Cl)cccc12` had a melting point of 186 to 189 °C.
As for `C=Cc1cn(-c2c(Cl)cc(C(F)(F)F)cc2Cl)cc1C#N`, the figure is 55 to 60 °C; as for `Cc1ccc(O)cc1C(CCC(=O)O)Oc1cc(OCc2cccnc2)ccc1C#N` (racemic), 198 to 200 °C.
The same measure for `Nc1cc(F)c(N2CCOCC2)cc1Cl`: 89.5 °C; for `CCOC(=O)c1c(O)c(O)c(C(=O)OCC)n1Cc1ccccc1`: 144 to 145 °C.
As for `N#CC1c2ccccc2Oc2cc(O)cc(O)c21` (stereo not drawn), the figure is 211 to 215 °C; as for `COC(=O)c1ccc(C(=O)Nc2ccc(C)c(Nc3nc(-c4cccnc4)cs3)c2)cc1`, 195 °C; as for `CCNC(=O)CCCNC(=O)CCCNC(=O)OC(C)(C)C`, 134 to 135 °C.
Compound `CC(C)(C)OC(=O)Nc1cccc(C(=O)OCC#N)c1` displayed a melting point of 118 to 119 °C.
As to `CCN(CC)c1cccc2nc(Cc3c(Cl)cc(C(F)(F)F)cc3Cl)n(C)c12`, the melting point lay within 150 to 151 °C.
The same measure for `Cc1cc(C)n(-c2nc(Nc3ccc(-c4ccccc4)cc3)c3ccccc3n2)n1`: 268 to 270 °C.
The same measure for `CC1(C)OC(=O)Nc2ccc(-c3cccc(Br)c3)cc21`: 174 to 175 °C; for `COc1ccc(N2CCN(c3c(C)c(C)c4c(c3C)C(O)(Cc3ccccc3)C(C)(C)O4)CC2)cc1` (stereo not drawn): 152 to 153 °C.
The same measure for `Nc1nc(F)cc(F)n1`: 193 to 196 °C; for `COc1ccc2[nH]nc(N3CCN(C)CC3)c2c1`: 158 to 160 °C; for `O=C1C(=C(O)Cc2ccccc2)SC(=S)N1c1ccc(Cl)cc1`: 134 to 137 °C.
Compound `COc1cc2ncc(O[C@H]3CC[C@H](C(=O)O)CC3)nc2cc1OC` came in with a melting point of 90 to 93 °C.
The same measure for `CCN1c2ncc(CCCc3ccccc3)cc2C(=O)N(C)c2cccnc21`: 100 to 102 °C; for `O=C1Cc2c(cccc2N(CCN(Cc2ccccc2)C(=O)C(F)(F)F)C(=O)C(F)(F)F)N1`: 108 to 111 °C.
As to `O=C(O)c1nc2ccc(OCCCN3CCC(OC(c4ccccc4)c4ccccc4)CC3)nn2n1`, the melting point is 173 to 177 °C.
As for `O=S1c2ccccc2-c2[nH]nc(-c3ccccc3)c21` (stereo not drawn), the figure is 222 to 224 °C.

Source of the values: a melting point compilation (Tetko et al.; mined from patent text by program, amines drawn as free bases though some values may be those of a salt).
